Test results: patent US11033547B2, “Carboxamide-pyrimidine derivatives as SHP2 antagonists” (Merck Patent GmbH, priority 2019, dated 2021)
Counter-ions that a name gives are not always drawn. Like-named read-outs stand apart in the source and are kept apart here.

Columns and labels:
[1] = target: Full length SHP2 protein (Recombinant Human SHP-2) (Homo sapiens, UniProt Q06124); assay: SHP2 biochemical assay (DiFMUP substrate, activating peptide IRSI_2pY); conditions: DiFMUP substrate, activating peptide IRSI_2pY, 60 min at RT; read-out: SHP-2 Biochemical assay IC50
Full length SHP2 protein (Recombinant Human SHP-2), sequence (Q06124 2-593 limits assumed): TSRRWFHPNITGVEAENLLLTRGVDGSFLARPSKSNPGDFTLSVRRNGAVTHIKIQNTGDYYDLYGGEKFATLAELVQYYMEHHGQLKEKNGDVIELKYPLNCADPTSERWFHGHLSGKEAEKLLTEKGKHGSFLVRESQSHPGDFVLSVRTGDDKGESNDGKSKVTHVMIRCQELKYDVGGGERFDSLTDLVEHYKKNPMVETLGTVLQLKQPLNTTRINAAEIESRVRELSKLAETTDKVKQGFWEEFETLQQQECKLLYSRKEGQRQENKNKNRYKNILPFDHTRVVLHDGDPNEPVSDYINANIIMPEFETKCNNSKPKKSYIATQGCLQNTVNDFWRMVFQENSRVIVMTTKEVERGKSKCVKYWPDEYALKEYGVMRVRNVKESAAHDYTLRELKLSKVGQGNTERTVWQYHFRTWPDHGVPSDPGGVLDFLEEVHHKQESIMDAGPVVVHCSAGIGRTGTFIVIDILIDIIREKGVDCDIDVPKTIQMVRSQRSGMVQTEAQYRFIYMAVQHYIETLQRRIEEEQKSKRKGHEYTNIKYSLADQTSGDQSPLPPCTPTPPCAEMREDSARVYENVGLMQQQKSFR
Description: The inhibition of SHP2 by compounds of the invention was monitored using the surrogate substrate DiFMUP after protein activation by a peptide bearing two appropriately spaced phosphotyrosine. […] The generation of the DiFMU product by activated SHP2 was monitored through Fluorescence measurement with a PerkinElmer Envision reader.
The inhibitor dose response curves were analyzed with Genedata Screener.

[2] = system: pERK level in KYSE520 cells; assay: p-Erk cellular assay in KYSE520 (Mesoscale); type: cell-based; conditions: 2 h incubation, read-out: pERK1/2 in KYSE520 IC50
Description: (§1) p-Erk Cellular Assay in MDA-MB-468 and KYSE520:
(§2) The effect of SHP2 inhibitors on pERK level was assessed using phospho-specific antibody using Mesoscale quantification platform. For measuring change in pERK levels using mesoscale, 30,000 cells of MDA MB468 and KYSE520 cells were plated in 96-well tissue culture treated plate in 175 ul volume of media. After an overnight incubation at 37° C., various SHP2 inhibitors were added in different concentration to each well maintaining duplicate wells across plates and incubated with compounds for 2 h at 37° C. followed by a wash with ice cold PBS buffer. The cells were then lysed in lysis buffer and processed and analyzed for p-ERK/ERK as per manufacturer's instructions (Mesoscale discovery, cat No. K15107D-3).

[3] = target: Kv11.1 (hERG) ion channel (Homo sapiens (Human), UniProt Q12809); type: cell-based; conditions: ratio of hERG Ki (patch clamp) to pERK IC50 in KYSE520
Kv11.1 (hERG) ion channel, sequence (Q12809 whole entry): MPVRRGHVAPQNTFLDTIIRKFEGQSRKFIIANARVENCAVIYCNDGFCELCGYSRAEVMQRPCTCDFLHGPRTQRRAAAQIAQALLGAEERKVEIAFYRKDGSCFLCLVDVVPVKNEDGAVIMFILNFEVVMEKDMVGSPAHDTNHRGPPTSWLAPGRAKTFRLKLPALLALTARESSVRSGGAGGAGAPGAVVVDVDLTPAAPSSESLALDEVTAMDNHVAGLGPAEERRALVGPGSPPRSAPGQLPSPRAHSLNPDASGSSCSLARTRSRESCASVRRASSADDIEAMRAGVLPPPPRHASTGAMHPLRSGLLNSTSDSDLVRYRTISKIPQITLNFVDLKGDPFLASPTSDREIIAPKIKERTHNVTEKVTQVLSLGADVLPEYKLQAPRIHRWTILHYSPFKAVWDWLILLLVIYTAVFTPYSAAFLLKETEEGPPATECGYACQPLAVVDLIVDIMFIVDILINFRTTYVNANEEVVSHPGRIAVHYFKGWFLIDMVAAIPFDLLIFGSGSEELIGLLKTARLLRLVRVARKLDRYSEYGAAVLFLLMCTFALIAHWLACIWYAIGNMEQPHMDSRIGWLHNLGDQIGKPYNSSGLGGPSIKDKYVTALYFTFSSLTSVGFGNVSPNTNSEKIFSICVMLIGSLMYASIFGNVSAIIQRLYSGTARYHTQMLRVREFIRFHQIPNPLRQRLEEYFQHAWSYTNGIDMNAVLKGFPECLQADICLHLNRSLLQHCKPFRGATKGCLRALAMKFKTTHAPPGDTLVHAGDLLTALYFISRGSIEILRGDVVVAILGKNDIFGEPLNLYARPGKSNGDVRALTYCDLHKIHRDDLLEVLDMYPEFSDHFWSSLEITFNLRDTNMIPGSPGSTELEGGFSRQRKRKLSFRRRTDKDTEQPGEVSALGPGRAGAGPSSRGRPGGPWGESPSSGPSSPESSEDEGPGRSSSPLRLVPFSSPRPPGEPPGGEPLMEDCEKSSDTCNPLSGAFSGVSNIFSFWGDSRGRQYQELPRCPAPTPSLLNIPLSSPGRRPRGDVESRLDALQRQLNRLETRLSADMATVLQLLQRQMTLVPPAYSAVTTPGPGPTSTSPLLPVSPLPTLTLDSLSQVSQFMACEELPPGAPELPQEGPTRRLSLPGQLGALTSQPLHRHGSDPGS
Description: Inhibition of the ion channel hErg (or Kv11.1) current causes QT interval prolongation resulting in potentially fatal ventricular tachyarrhythmia called Torsade de Pointes.
hERG ion channel activity was assessed using a patch clamp technique in stable Kv11.1 (hERG) transfected human embryonic kidney cell line (HEK293). Whole cell recordings were carried out with an automated patch clamp device Patchliner™ from Nanion Technologies, Munich following manufacturer recommendation. Different concentrations of the test compound or reference, quinidine, were applied to whole cells suspension and current was measured using a pulse pattern with fixed amplitudes.

[4] = system: pERK level in MDA-MB-468 cells; assay: p-Erk cellular assay in MDA-MB-468 (Mesoscale); type: cell-based; conditions: 2 h incubation, read-out: pERK1/2 in MDA-MB-468 IC50
Description: as §1, §2

[5] = Pharmacokinetics in female CD1 mice (oral / intravenous); type: in vivo; conditions: mouse PK; for clearance / Vd: female, CD1, plasma, intravenous; for Vd: read-out: Vd ss
Description: Female CD1 mice (N=3) received a single oral (gavage) or a single intravenous (bolus) injection of compound. […] Consecutive blood samples were taken sub-lingually under isofluorane inhalation from animals after 0.083 (IV), 0.25, 0.5, 1, 2, 4, 6 and 24 h and were further processed to obtain plasma. Samples were protein precipitated and analyzed by LC/MS/MS.

| IC50 [1] [nM] | IC50 ([2]; Homo sapiens, KYSE-520, 2 h) [nM] | IC50 ([4]; Homo sapiens, MDA-MB-468, 2 h) [nM] | SMILES | other results |
| --- | --- | --- | --- | --- |
| 82 | 1470 | 342 | CC1(N)CCN(c2nc(N)c(-c3cccc(Cl)c3Cl)c(C(N)=O)n2)CC1 (single isomer, unassigned) [Compound 27, (4P)-6-Amino-2-(4-amino-4-methyl-piperidin-1-yl)-5-(2,3-dichloro-phenyl)-pyrimidine-4-carboxylic Acid Amide] | clearance [5]: 37.3 mL/min/kg; Vd [5]: 8.7 L/kg; Clearance as compared to SHP-099 (in words) [5]: lower clearance; Exposure as compared to SHP-099 (in words) [5]: higher exposure |
| 2 | 16 |  | NC(=O)c1nc(N2CCC3(CC2)Cc2scnc2[C@H]3N)nc(N)c1-c1cccc(Cl)c1Cl [Compound 121, 6-amino-2-[(4S)-4-amino-4,6-dihydrospiro[cyclopenta[d][1,3]thiazole-5,4′-piperidin]-1′-yl]-5-(2,3-dichlorophenyl)pyrimidine-4-carboxamide] | Split between hErg and cell activity Ki(patch Clamp)/IC50 (KYSE) [3]: >600 |
| 71 | 468 | 420 | C[C@@]1(N)CCCN(c2nc(N)c(-c3cccc(Cl)c3Cl)c(C(N)=O)n2)CC1 (atropisomer, axis not shown; (P)) [Compound 109, (5P)-6-amino-2-[(4R)-4-amino-4-methylazepan-1-yl]-5-(2,3-dichlorophenyl)-pyrimidine-4-carboxamide] |  |
| 360 | 11500 | 1630 | Cc1nc(NC2CCCC(N)C2)nc(C(N)=O)c1-c1cccc(Cl)c1Cl (centres unmarked) [Compound 28, 2-(3-Amino-cyclohexyl-amino)-5-(2,3-dichloro-phenyl)-6-methyl-pyrimidine-4-carboxylic acid amide] |  |
| 160 |  |  | CC1(N)CCN(c2nc(N)c(-c3cccc(Cl)c3Cl)c(C(N)=O)n2)CC1 [Compound No. 3, 6-Amino-2-(4-amino-4-methyl-piperidin-1-yl)-5-(2,3-dichlorophenyl)-pyrimidine-4-carboxylic Acid Amide] | IC50 [4]: 346 nM; IC50 [2]: 754 nM; Split between hErg and cell activity Ki(patch Clamp)/IC50 (KYSE) [3]: >14 |
| 75 | 390 | 445 | NC[C@]12CCCC[C@H]1CN(c1nc(N)c(-c3cccc(Cl)c3Cl)c(C(N)=O)n1)C2 (single isomer, unassigned) [Compound 101] |  |
| 270 | 7650 | 2350 | NCC12CCCCC1CN(c1nc(N)c(-c3cccc(Cl)c3Cl)c(C(N)=O)n1)C2 (centres unmarked) [Compound 24, 2-[3a-(aminomethyl)-octahydro-1H-isoindol-2-yl]-6-amino-5-(2,3-dichlorophenyl)pyrimidine-4-carboxamide] |  |
| 104 | 2400 |  | Cc1nc(N2CCC(C)(N)CC2)nc(C(N)=O)c1-c1cccc(Cl)c1Cl [Compound 18, 2-(4-Amino-4-methyl-piperidin-1-yl)-5-(2,3-dichloro-phenyl)-6-methyl-pyrimidine-4-carboxylic Acid Amide] | IC50 [4]: 231 nM |
| 1100 | 6440 | 1500 | CNC(=O)c1nc(N2CCC(C)(N)CC2)nc(N)c1-c1cccc(Cl)c1Cl [Compound 9, 6-Amino-2-(4-amino-4-methyl-piperidin-1-yl)-5-(2,3-dichlorophenyl)-pyrimidine-4-carboxylic Acid Methylamide] |  |
| > 10000 |  |  | CC1(N)CCN(c2nc(N)c(-c3cccc(Cl)c3Cl)c(C(N)=O)n2)CC1 (atropisomer, axis not shown; (M)) [Compound 26, (4M)-6-Amino-2-(4-amino-4-methyl-piperidin-1-yl)-5-(2,3-dichloro-phenyl)-pyrimidine-4-carboxylic acid amide] | IC50 [4]: 8190 nM; IC50 [2]: > 10000 nM |
| 720 | 11300 | 1720 | Cc1nc(N2CCC(C)(N)CC2)nc(C(N)=O)c1-c1ccnc(Cl)c1Cl [Compound 81, 2-(4-Amino-4-methyl-piperidin-1-yl)-5-(2,3-dichloro-pyridin-4-yl)-6-methyl-pyrimidine-4-carboxylic acid amide] |  |
| 260 | 7700 | 1170 | NC(=O)c1nc(N2CCC(N)(CO)CC2)nc(N)c1-c1cccc(Cl)c1Cl [Compound 29, 6-amino-2-[4-amino-4-(hydroxymethyl)piperidin-1-yl]-5-(2,3-dichlorophenyl)-pyrimidine-4-carboxamide] |  |
| 200 | 3610 | 736 | Cc1nc(N(C)C2CCC(N)CC2)nc(C(N)=O)c1-c1cccc(Cl)c1Cl (centres unmarked) [Compound 32, 2-[(4-Amino-cyclohexyl)-methyl-amino]-5-(2,3-dichlorophenyl)-6-methyl-pyrimidine-4-carboxylic acid amide] |  |
| 170 | 2100 | 646 | Cc1nc(N2CCCC(C)(N)CC2)nc(C(N)=O)c1-c1cccc(Cl)c1Cl (centres unmarked) [Compound 45, 2-(4-Amino-4-methyl-azepan-1-yl)-5-(2,3-dichloro-phenyl)-6-methyl-pyrimidine-4-carboxylic acid amide] |  |
| 200 | 1300 | 652 | CCCC1(N)CCN(c2nc(N)c(-c3cccc(Cl)c3Cl)c(C(N)=O)n2)CC1 [Compound 53, 6-amino-2-(4-amino-4-propylpiperidin-1-yl)-5-(2,3-dichloro-phenyl)pyrimidine-4-carboxamide] |  |
| 120 | 1370 | 606 | NC(=O)c1nc(N2CCC3(CCC[C@H]3N)CC2)nc(N)c1-c1cccc(Cl)c1Cl [Compound 7, 6-amino-2-[(1R)-1-amino-8-azaspiro[4.5]decan-8-yl]-5-(2,3-dichlorophenyl)pyrimidine-4-carboxamide] |  |
| 30 |  |  | CC1(N)CCN(c2nc(Cl)c(-c3cccc(Cl)c3Cl)c(C(N)=O)n2)CC1 (atropisomer, axis not shown; (P)) [Compound 79, (4P)-2-(4-amino-4-methylpiperidin-1-yl)-6-chloro-5-(2,3-dichlorophenyl)-pyrimidine-4-carboxamide] | IC50 [4]: 177 nM; IC50 [2]: 837 nM |
|  |  |  | Cc1nc(N2CCC3(CC2)Cc2ccccc2[C@H]3N)nc(C(N)=O)c1-c1cccc(Cl)c1Cl (atropisomer, axis not shown; (M)) [Compound 119, (M)-2-[(1S)-1-amino-1,3-dihydrospiro[indene-2,4′-piperidin]-1′-yl]-5-(2,3-dichlorophenyl)-6-methylpyrimidine-4-carboxamide] | Split between hErg and cell activity Ki(patch Clamp)/IC50 (KYSE) [3]: 97 |

| SMILES | IC50 [1] [nM] | IC50 ([2]; Homo sapiens, KYSE-520, 2 h) [nM] | IC50 ([4]; Homo sapiens, MDA-MB-468, 2 h) [nM] | other results |
| --- | --- | --- | --- | --- |
| NC(=O)c1nc(N2CCC3(CC2)Oc2ccccc2[C@H]3N)nc(N)c1-c1cccc(Cl)c1Cl [Compound 123, 6-amino-2-((R)-3-amino-3H-spiro[benzofuran-2,4′-piperidin]-1′-yl)-5-(2,3-dichlorophenyl)pyrimidine-4-carboxamide di-hydrochloride] | 15 | 58 |  | Split between hErg and cell activity Ki(patch Clamp)/IC50 (KYSE) [3]: >100 |
| Cc1nc(N2CCC3(CC2)CO[C@@H](C)[C@H]3N)nc(C(N)=O)c1-c1cccc(Cl)c1Cl (single isomer, unassigned) [Compound 95] | 22 | 486 | 497 | clearance [5]: 12.8 mL/min/kg; Vd [5]: 3.99 L/kg; Clearance as compared to SHP-099 (in words) [5]: lower clearance; Exposure as compared to SHP-099 (in words) [5]: higher exposure |
| C[C@@H]1OCC2(CCN(c3nc(N)c(-c4cccc(Cl)c4Cl)c(C(N)=O)n3)CC2)[C@@H]1N [Compound No. 5, 6-amino-2-[(3S,4S)-4-amino-3-methyl-2-oxa-8-azaspiro[4.5]decan-8-yl]-5-(2,3-dichlorophenyl)pyrimidine-4-carboxamide] | 72 | 1090 | 1010 | Split between hErg and cell activity Ki(patch Clamp)/IC50 (KYSE) [3]: >10 |
| Cc1nc(N2CCC3(CC2)CO[C@@H](C)[C@H]3N)nc(C(N)=O)c1-c1cccc(Cl)c1Cl [Compound 85, 2-[(3S,4S)-4-amino-3-methyl-2-oxa-8-azaspiro[4.5]decan-8-yl]-5-(2,3-dichlorophenyl)-6-methylpyrimidine-4-carboxamide] | 48 | 1240 | 407 |  |
